The values that follow come from EP3138849B1, “SALTS OF PHOSPHORUS-CONTAINING AMINOGLYCOSIDE ANTIBIOTICS” (Mathys AG Bettlach, priority 2015, dated 2017).

One data set relates to MC 3T3-E1-Zellen. It is filed as cell-based, Maus. The procedure: Für die Untersuchungen der Cytokompatibilität der aminoglykosidhaltigen Beschichtungen werden runde, sandgestrahlte Probekörper aus Reintitan mit einem Durchmesser von 11 mm mit Gentamicin-Palmitat, Gentamicin-Dodecylphosphat bzw. Gentamicin-Octadecylphosphonsäure mit einem Gehalt von 100 µg Gentamicn-Base pro cm^2, wie in Beispiel 30 beschrieben, beschichtet.
Die Probekörper werden nach dem Trocknen der Beschichtung in Mikrotiterplatten überführt und mit einer definierten Anzahl von MC 3T3-E1-Zellen (Maus-Präosteoblasten-Zelllinie, 25.000 Zellen/ml) besiedelt.
Nach einer Inkubationszeit von 4 Tagen erfolgt die Vitalfärbung mit einer Mischung aus Fluoresceindiacetat (FDA) und GelRed®.
Fig. 2 zeigt die Vitalitätsbestimmung der Zellen mittels Auflicht-Fluoreszenzmikroskopie: Gentamicin-Palmitat (A), Gentamicin-Dodecylphosphat (B), Gentamicin-Octadecylphosphat (C).

The nature of data set [1]: Release of aminoglycosides from coatings on pure titanium test discs. Type of data set: physicochemical. As to conditions: for Freisetzungsrate von Gentamicin-Base (time course) / initiale Freisetzung von Gentamicin-Base: coated titanium disc, 100 µg Gentamicin-Base per cm^2, 1 ml isotonic saline, 37 °C; for Freisetzungsrate von Gentamicin-Base (time course): 21 d, sampling at 1, 2, 3, 4, 7, 14, 21 days; for Freisetzungsrate von Gentamicin-Base (time course) / Wirkstofffreisetzung von beschichteten Titanoberflächen: Fig. 1; for initiale Freisetzung von Gentamicin-Base: Fig. 1, start of release; for Wirkstofffreisetzung von beschichteten Titanoberflächen: compared with Gentamicin-Palmitat. An excerpt:
Zur Untersuchung der Freisetzung von Aminoglykosiden aus Beschichtungen werden runde Probekörper aus Reintitan (Grade 4) mit einem Durchmesser von 11 mm verwendet. Für die Beschichtungen werden folgende Aminoglycosid-Verbindungen verwendet: Gentamicin-Palmitat, Gentamicin-Dodecylphosphat und Gentamicin-Octadecylphosphonsäure.
Umsetzung von Gentamicin mit Palmitat im molaren Verhältnis 1:4. Umsetzung von Gentamicin mit Dodecylphosphat bzw. Octadecylphosphonat im molaren Verhältnis 1:3.
Lösung von Gentamicin-Palmitat, Gentamicin-Dodecylphosphat und Gentamicin-Octadecylphosphonsäure in Ethanol (Konzentration 15-25 mg/ml). Auf die Oberfläche wurden unter sterilen Bedingungen 100 µg Gentamicin-Base pro cm^2 aufgetragen. Trocknen der Beschichtung (4 h bei Raumtemperatur).
Inkubation der beschichteten Probekörper in 1 ml isotonischer Kochsalzlösung über eine Zeitdauer von 21 d bei 37 °C. Zu festgelegten Zeitpunkten (1, 2, 3, 4, 7, 14 und 21 Tagen) werden die Überstände abgenommen und die Probekörper in neuer isotonischer Kochsalzlösung weiter inkubiert.
Der Gehalt an Gentamicin wurde im Hemmhoftest mit Bacillus subtilis (ATCC 6633) bestimmt.
Die gemittelte Menge der freigesetzten Gentamicin-Base aus diesen Gentamicin-Salzen ist in Fig. 1 dargestellt.

For Gentamicin-Dodecylphosphat, the Zytotoxizität entry with MC 3T3-E1-Zellen is recorded as “signifikant geringere Zytotoxizität”. Also, in data set [1], the “Freisetzungsrate von Gentamicin-Base (time course)” value is reported as “bleibt bis Tag 7 konstant und fällt dann nur schwach ab”, the “initiale Freisetzung von Gentamicin-Base” value is “niedrigere Freisetzungsrate von Gentamicin-Base als das Gentamicin-Palmitat” and the “Wirkstofffreisetzung von beschichteten Titanoberflächen” value is “retardierende Wirkstofffreisetzung”.
In the case of Gentamicin-Octadecylphosphonsäure, in data set [1], the “Freisetzungsrate von Gentamicin-Base (time course)” value is “bleibt von Tag 2 bis Tag 14 konstant”, the “initiale Freisetzung von Gentamicin-Base” value is on record as “niedrigste initiale Freisetzung von Gentamicin-Base” and the “Wirkstofffreisetzung von beschichteten Titanoberflächen” value is “retardierende Wirkstofffreisetzung”.
Regarding “Gentamicin-Palmitat [reference compound]”, in the data set on MC 3T3-E1-Zellen, the Zellzahlen result is “niedrigsten Zellzahlen”. Also, in data set [1], the “Freisetzungsrate von Gentamicin-Base (time course)” value is given as “bis zum vierten Freisetzungstag stark abnimmt” and the “initiale Freisetzung von Gentamicin-Base” value was “initial hohen Freisetzung der Gentamicin-Base (Burst release)”.
